# pIC50: −log10 of the molar value.
# Key:
# Male Wistar rats = test: p-PCA-induced ejaculation in anesthetized rats (ejaculation-delaying effect); assay type: in vivo, rat; conditions: for Ratio: Number of responding animals/total animal number: 50 mg/kg oral in 1% HPMC, p-PCA 5 mg/kg i.p. 80 min later, observed 30 min; for Latency: Time to display the ejaculatory response: 50 mg/kg oral, p-PCA 5 mg/kg i.p., mean ± standard deviation of responding rats
# Protocol: The compounds prepared in the above examples were evaluated to determine whether they have an effect of delaying ejaculation. The evaluation was carried out using an animal model according to a method described in Yonezawa et al., Life Sci. 2000, 67(25) p 3031-9. Male Wistar rats weighing 240-260 g were used. Each compound was suspended in 1% HPMC, and then administered orally to each animal. After 60 min, the animals were anesthetized and fixed. 20 min later, para-chloroamphetamine (p-PCA) was intraperitoneally administered in a dose of 5 mg/kg in order to induce ejaculation. […] An ejaculatory response was considered to be elicited when rhythmic contraction of bulbocavernosus muscles and semen discharge occurs. Six or more animals were used for each compound. A Fisher's […] test was performed for the comparison of the proportion of responding rats (ejaculated rats) to determine significance of difference between a treatment group and a vehicle control. The time to reach ejaculation was expressed as mean±standard deviation.
# Each test compound was administered at a dose of 50 mg/kg. Ejaculation was elicited in all seven animals of a control group.
# [1] = test system: cellular uptake of serotonin; test: Cellular reuptake assay, [3H]serotonin; assay type: cell-based; conditions: Homo sapiens, HEK293, 10 min, HEK-293 cell line
# Protocol: (§1) First, the effects of the present compounds on cellular uptake of dopamine, norepinephrine and serotonin were evaluated with human-derived CHO-1, MDCK and HEK-293 cell lines. Each cell line was dosed with 10^−5 μM to 10^4 μM of the compounds of Examples 2, 35, 40 and 45, and then incubated with [^3H]dopamine, [^3H]norepinephrine and [^3H]serotonin in buffer. After 10 min, the amount of each neurotransmitter taken up into cells was determined by counting radioactivity using a liquid scintillation counter (LSC).
# [2] = test system: cellular uptake of norepinephrine; test: Cellular reuptake assay, [3H]norepinephrine; assay type: cell-based; conditions: 10 min, MDCK cell line
# Protocol: as §1
# [3] = test system: Salmonella typhimurium TA98, 100, 1535, 1537, E. coli WP2 uvrA; test: Mutagenicity test: Ames test; assay type: cell-based; conditions: 8, 40, 200, 1000, 2500, 5000 μg/plate, presence/absence of a metabolic activation system
# Protocol: (§2) To evaluate the safety of the present derivatives, mutagenicity test was conducted. Ames test and chromosome aberration test were conducted with the examples 2, 35, 40 and 45.
# 5-HT transporter = target: T1, 5-HT transporter (Homo sapiens, UniProt P31645); test: Radioligand competitive binding assay, [3H]Paroxetine; conditions: human-derived recombinant HEK-293 cells
# T1 construct: expressed in transfected cells; host or cells: HEK-293 cells
# T1 sequence (P31645 whole entry): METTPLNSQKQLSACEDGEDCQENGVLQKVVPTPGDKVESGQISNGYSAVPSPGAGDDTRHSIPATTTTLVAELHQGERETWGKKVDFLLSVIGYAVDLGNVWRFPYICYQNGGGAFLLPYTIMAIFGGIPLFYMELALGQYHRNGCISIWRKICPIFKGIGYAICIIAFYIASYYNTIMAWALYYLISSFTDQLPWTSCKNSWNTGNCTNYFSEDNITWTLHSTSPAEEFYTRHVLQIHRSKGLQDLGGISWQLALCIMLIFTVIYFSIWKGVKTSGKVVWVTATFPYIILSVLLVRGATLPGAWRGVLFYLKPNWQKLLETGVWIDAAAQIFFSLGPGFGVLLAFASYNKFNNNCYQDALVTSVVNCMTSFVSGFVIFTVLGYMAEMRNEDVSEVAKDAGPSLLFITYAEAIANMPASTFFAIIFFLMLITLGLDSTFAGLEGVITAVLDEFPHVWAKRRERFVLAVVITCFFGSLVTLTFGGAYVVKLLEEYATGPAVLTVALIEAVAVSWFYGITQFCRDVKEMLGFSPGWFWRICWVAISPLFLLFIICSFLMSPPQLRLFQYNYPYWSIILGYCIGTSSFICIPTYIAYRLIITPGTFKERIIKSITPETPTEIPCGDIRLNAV
# Protocol: (§3) In addition, ligand binding to 5HT1A, 5-HT1B and 5-HT2C receptors and 5-HT transporter was evaluated with human-derived recombinant CHO cells, Wistar rat-derived cerebral cortical cells, human-derived recombinant CHO-K1 cells, and human-derived recombinant HEK-293 cells. Each cell line was dosed with 10^−5 μM to 10^4 μM of the compounds of Examples 2, 35, 40 and 45, and then incubated with a radio-labeled ligand for competitive binding. Ligands used were […], [^125I]Cyanopindolol, [^3H]Mesulergine and [^3H]Paroxetine, respectively. The competitive binding assay was carried out in 50 mM Tris-HCl buffer at 25° C. or 37° C., for 60 to 90 min.
# [4] = Determination of half-lives of the compounds in rats (oral, plasma HPLC); assay type: in vivo; conditions: rat, male Sprague-Dawley rats, 10 mg/kg (text also says 5 mg/kg), 0.5% methylcellulose
# Protocol: The half-lives of present compounds were determined as follows. Each compound was administered orally to male Sprague-Dawley rats weighing approximately 270 g at a dose of 10 mg/kg. 5 mg/kg of each compound was suspended in 0.5% methyl-cellulose and then administered to rats. Blood samples were collected 0.017, 0.083, 0.25, 0.5, 1, 2, 3, 5, 7 and 24 hours after administration, and centrifuged at 1,000 rpm for 3 min to separate plasma. The concentration of each compound in plasma was determined using high performance liquid chromatography, which was performed with a mobile phase of 10 mM ammonium formate (pH 3.0) and acetonitrile (50:50), an […] column (21×100 mm, 3 μm) and a flow rate of 0.2 ml/min.
# [5] = test system: cellular uptake of dopamine; test: Cellular reuptake assay, [3H]dopamine; assay type: cell-based; conditions: 10 min, CHO-1 cell line
# Protocol: as §1
# [6] = test system: CHL (Chinese Hamster Lung) cell; test: Mutagenicity test: chromosome aberration test; assay type: cell-based; conditions: 75, 150, 300 μg/ml with metabolic activation; 20, 40, 80 μg/ml without
# Protocol: as §2
# 5HT1A receptor = target: T2, 5HT1A receptor (Homo sapiens, UniProt P08908); test: Radioligand competitive binding assay; conditions: human-derived recombinant CHO cells
# T2 construct: expressed in transfected cells; host or cells: CHO cells
# T2 sequence (P08908 1-422): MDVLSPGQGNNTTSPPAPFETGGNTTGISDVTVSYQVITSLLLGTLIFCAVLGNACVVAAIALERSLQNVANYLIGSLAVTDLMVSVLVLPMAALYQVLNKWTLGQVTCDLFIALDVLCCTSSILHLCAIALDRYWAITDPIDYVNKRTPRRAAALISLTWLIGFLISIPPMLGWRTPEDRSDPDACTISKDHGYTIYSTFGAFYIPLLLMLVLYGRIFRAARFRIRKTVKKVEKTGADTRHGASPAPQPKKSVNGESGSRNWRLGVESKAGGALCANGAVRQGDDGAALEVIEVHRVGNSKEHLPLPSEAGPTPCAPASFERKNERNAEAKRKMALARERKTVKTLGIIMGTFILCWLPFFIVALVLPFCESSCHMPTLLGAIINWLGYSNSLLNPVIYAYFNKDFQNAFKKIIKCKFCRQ
# Protocol: as §3
# [7] = target: hERG (human Ether-a-go-go Related Gene) (Homo sapiens, UniProt Q12809); test: Cardiotoxicity test, hERG assay (MDS Pharma)
# Chain of hERG (human Ether-a-go-go Related Gene) (Q12809 whole entry): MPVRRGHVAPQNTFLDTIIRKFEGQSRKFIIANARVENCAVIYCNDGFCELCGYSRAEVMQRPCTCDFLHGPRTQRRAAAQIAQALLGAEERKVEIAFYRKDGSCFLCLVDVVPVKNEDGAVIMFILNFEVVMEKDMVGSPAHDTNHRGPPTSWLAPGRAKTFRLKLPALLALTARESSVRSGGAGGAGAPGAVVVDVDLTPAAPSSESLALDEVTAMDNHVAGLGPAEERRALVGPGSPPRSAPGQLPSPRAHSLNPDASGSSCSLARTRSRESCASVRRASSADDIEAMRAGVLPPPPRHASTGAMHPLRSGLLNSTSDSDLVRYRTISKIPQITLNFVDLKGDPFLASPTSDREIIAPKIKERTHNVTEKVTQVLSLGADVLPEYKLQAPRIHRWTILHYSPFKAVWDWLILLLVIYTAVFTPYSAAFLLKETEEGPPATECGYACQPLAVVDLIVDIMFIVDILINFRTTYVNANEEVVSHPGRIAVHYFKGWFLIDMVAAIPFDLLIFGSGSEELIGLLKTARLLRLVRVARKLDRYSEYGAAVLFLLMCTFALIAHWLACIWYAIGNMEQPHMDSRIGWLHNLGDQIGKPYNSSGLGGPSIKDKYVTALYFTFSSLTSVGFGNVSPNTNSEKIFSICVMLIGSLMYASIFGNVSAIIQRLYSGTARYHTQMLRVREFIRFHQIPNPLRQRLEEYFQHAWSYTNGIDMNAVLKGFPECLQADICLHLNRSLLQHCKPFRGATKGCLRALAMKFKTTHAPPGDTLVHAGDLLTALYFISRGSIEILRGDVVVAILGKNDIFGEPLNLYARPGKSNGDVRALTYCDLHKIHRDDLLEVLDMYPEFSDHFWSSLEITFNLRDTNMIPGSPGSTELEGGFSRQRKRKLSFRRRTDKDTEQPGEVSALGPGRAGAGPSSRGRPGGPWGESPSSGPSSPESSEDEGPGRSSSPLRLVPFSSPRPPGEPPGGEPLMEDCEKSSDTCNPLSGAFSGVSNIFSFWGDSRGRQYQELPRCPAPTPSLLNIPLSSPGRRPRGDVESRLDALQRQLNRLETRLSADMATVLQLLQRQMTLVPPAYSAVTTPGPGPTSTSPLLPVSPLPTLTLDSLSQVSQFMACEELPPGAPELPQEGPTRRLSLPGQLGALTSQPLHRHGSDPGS
# Excerpt: To evaluate the safety of the present derivatives in comparison with control drug, conducted was hERG (human Ether-a-go-go Related Gene) assay which is a representative test of safety medical test. This test was requested to trial institute MDS Pharma., which conducted this test.
# 5-HT1B receptor = target: T3, 5-HT1B receptor (Rattus norvegicus, UniProt P28564); test: Radioligand competitive binding assay, [125I]Cyanopindolol; conditions: Wistar rat-derived cerebral cortical cells
# T3 construct: Wistar rat-derived cerebral cortical cells; from tissue; host or cells: Wistar rat cerebral cortex
# T3 sequence (P28564 whole entry): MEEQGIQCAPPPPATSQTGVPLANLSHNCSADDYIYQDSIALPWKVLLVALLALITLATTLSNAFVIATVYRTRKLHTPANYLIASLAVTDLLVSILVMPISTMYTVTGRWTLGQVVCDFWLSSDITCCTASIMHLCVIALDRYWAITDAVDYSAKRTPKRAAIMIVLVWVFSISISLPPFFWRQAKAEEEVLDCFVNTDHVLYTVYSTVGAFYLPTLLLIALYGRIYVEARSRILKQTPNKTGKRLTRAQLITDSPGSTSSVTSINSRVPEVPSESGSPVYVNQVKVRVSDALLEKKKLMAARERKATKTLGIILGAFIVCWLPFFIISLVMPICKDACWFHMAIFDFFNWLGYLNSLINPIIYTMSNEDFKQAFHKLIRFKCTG
# Protocol: as §3
# 5-HT2C receptor = target: T4, 5-HT2C receptor (Homo sapiens, UniProt P28335); test: Radioligand competitive binding assay, [3H]Mesulergine; conditions: human-derived recombinant CHO-K1 cells
# T4 construct: expressed in transfected cells; host or cells: CHO-K1 cells
# T4 sequence (P28335 33-458): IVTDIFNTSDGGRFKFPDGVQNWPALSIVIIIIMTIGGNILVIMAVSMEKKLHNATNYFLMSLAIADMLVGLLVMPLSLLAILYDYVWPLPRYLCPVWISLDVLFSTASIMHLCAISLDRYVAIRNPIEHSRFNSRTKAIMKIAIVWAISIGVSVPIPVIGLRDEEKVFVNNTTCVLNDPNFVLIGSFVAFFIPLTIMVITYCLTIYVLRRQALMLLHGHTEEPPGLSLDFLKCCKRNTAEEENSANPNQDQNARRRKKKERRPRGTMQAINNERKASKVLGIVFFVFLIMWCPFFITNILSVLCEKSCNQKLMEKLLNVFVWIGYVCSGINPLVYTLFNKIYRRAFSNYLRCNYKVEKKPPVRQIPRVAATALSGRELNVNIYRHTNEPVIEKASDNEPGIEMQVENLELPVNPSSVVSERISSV
# Protocol: as §3
# Sprague-Dawley (SD) rats = test: Acute toxicity test, single dose, mortality; assay type: in vivo, rat
# Excerpt: The present derivatives and citalopram were individually administered orally and intra-venously to SD rats at a single dose.
SMILES,Ratio: Number of responding animals/total animal number (Male Wistar rats),Latency: Time to display the ejaculatory response (Male Wistar rats),further results
"COc1ccc(C2(CCCN(C)C)OCc3cc(C#N)ccc32)cc1.O=C(O)C(=O)O (stereo not drawn) [Ex. 2, 1-{3-(dimethylamino)propyl}-1-(4-methoxyphenyl)-1,3-dihydro-5-isobenzofurancarbonitrile oxalate]",0/9,–,"pIC50 [1]: 6.52; pIC50 [2]: 4.44; Ames test result [3]: negative; pIC50 (5-HT transporter): > 10.00; Tmax [4]: 19.8 min; half-life [4]: 76.8 min; pIC50 [5]: 4.07; chromosome aberration test result [6]: negative; pIC50 (5HT1A receptor): 3.09; pIC50 [7]: 4.71; pIC50 (5-HT1B receptor): < 3.00; pIC50 (5-HT2C receptor): 5.15; minimum lethal dose (Sprague-Dawley (SD) rats; Intravenously, female SD rats): 70; minimum lethal dose (Sprague-Dawley (SD) rats; Intravenously, male SD rats): 70; minimum lethal dose (Sprague-Dawley (SD) rats; Orally, female SD rats): 1000; minimum lethal dose (Sprague-Dawley (SD) rats; Orally, male SD rats): 1000"
"Cl.N#Cc1ccc2c(c1)COC2(CCCn1cccn1)c1ccc(F)cc1 (stereo not drawn) [Ex. 58, 1-(4-fluorophenyl)-1-{3-(pyrazole-1-yl)propyl}-1,3-dihydro-5-isobenzofurancarbonitrile hydrochloride]",4/9,850 ± 362 s,–
"N#Cc1ccc2c(c1)COC2(CCn1cccn1)c1ccc(F)cc1 (stereo not drawn) [Ex. 59, 1-(4-fluorophenyl)-1-{2-(pyrazole-1-yl)ethyl}-1,3-dihydro-5-isobenzofurancarbonitrile]",3/7,954 ± 287 s,–
"Cl.N#Cc1ccc2c(c1)COC2(CCn1cccn1)c1ccc(F)cc1 (stereo not drawn) [Ex. 60, 1-(4-fluorophenyl)-1-{2-(pyrazole-1-yl)ethyl}-1,3-dihydro-5-isobenzofurancarbonitrile hydrochloride]",4/9,1010 ± 400 s,–
"N#Cc1ccc2c(c1)COC2(CCCn1ccnc1)c1ccc(Cl)cc1 (stereo not drawn) [Ex. 61, 1-(4-chlorophenyl)-1-{3-(imidazole-1-yl)propyl}-1,3-dihydro-5-isobenzofurancarbonitrile]",3/7,930 ± 247 s,–
"Cl.N#Cc1ccc2c(c1)COC2(CCCn1ccnc1)c1ccc(Cl)cc1 (stereo not drawn) [Ex. 62, 1-(4-chlorophenyl)-1-{3-(imidazole-1-yl)propyl}-1,3-dihydro-5-isobenzofurancarbonitrile hydrochloride]",4/7,888 ± 284 s,–
"N#Cc1ccc2c(c1)COC2(CCn1ccnc1)c1ccc(Cl)cc1 (stereo not drawn) [Ex. 63, 1-(4-chlorophenyl)-1-{2-(imidazole-1-yl)ethyl}-1,3-dihydro-5-isobenzofurancarbonitrile]",3/7,904 ± 307 s,–
"Cl.N#Cc1ccc2c(c1)COC2(CCn1ccnc1)c1ccc(Cl)cc1 (stereo not drawn) [Ex. 64, 1-(4-chlorophenyl)-1-{2-(imidazole-1-yl)ethyl}-1,3-dihydro-5-isobenzofurancarbonitrile hydrochloride]",4/7,1032 ± 299 s,–
"N#Cc1ccc2c(c1)COC2(CCCn1cccn1)c1ccc(Cl)cc1 (stereo not drawn) [Ex. 65, 1-(4-chlorophenyl)-1-{3-(pyrazole-1-yl)propyl}-1,3-dihydro-5-isobenzofurancarbonitrile]",5/9,801 ± 401 s,–
"Cl.N#Cc1ccc2c(c1)COC2(CCCn1cccn1)c1ccc(Cl)cc1 (stereo not drawn) [Ex. 66, 1-(4-chlorophenyl)-1-{3-(pyrazole-1-yl)propyl}-1,3-dihydro-5-isobenzofurancarbonitrile hydrochloride]",4/7,960 ± 350 s,–
"N#Cc1ccc2c(c1)COC2(CCn1cccn1)c1ccc(Cl)cc1 (stereo not drawn) [Ex. 67, 1-(4-chlorophenyl)-1-{2-(pyrazole-1-yl)ethyl}-1,3-dihydro-5-isobenzofurancarbonitrile]",3/7,853 ± 352 s,–
"Cl.N#Cc1ccc2c(c1)COC2(CCn1cccn1)c1ccc(Cl)cc1 (stereo not drawn) [Ex. 68, 1-(4-chlorophenyl)-1-{2-(pyrazole-1-yl)ethyl}-1,3-dihydro-5-isobenzofurancarbonitrile hydrochloride]",4/9,908 ± 274 s,–
